“Also recorded” adds a separate entry of the source.

Here are results for one compound from patent US20060116397A1, “Use of saquinavir as a radiation sensitizer” (The Trustees of the University of Pennsylvania, priority 2004, published 2006).

Data set [1] concerns Akt. The experiment in a line: Western blot analysis of Akt phosphorylation in SQ2OB head-and-neck cancer cell line. The data set is classed as cell-based, human. As to conditions: SQ2OB cells, 25 μM saquinavir, within 20 minutes, Western blot (FIG. 3). The text has this: Using Western blot analysis, a human head-and-neck cancer cell line, SQ2OB, containing a constitutively-active EGFR receptor and thus, increased signaling through PI3K, was examined for Akt phosphorylation.
Background: A western blot detects proteins with antibodies after separation by electrophoresis.

The test system of another data set is cells in tissue culture. Description: Toxicity to cells in tissue culture. The data set is classed as cell-based.
Data set [2] relates to Akt. The experiment in a line: Western blot of Akt phosphorylation in white blood cells of HIV patients. The note with it: HIV patients taking saquinavir vs HIV patients not using saquinavir. It counts as in vivo, human. The text has this: As a proof of principle, it was examined whether there was down-regulation of Akt in HIV patients who are being actively treated with HPIs. Blood samples were obtained from HIV patients on courses of various combinations of drugs. WBCs were isolated and stained for Akt using a Western Blot.

The next data set relates to T24 cells. Description: Clonogenic assay, radiation sensitization (surviving fraction after 2 Gy). The data set is classed as cell-based. How it is done:
Cultures of cells in log growth phase were counted and plated in 60-mm dishes containing 4 ml of media. The cells were allowed to attach and saquinavir was added to cultures at least one hour prior to irradiation. Cells were irradiated with a Mark I cesium irradiator (J. L. Shepherd, San Fernando, Calif.) at a dose rate of 1.6 Gy/min. Colonies were stained and counted 10-14 days after irradiation. A light box was used to assist in counting colonies. The surviving fraction was calculated by dividing the number of colonies formed by the number of cells plated times plating efficiency (Table 1). Each point value represents the mean surviving fraction from at least six replicate dishes.

As for `CC(C)(C)NC(=O)[C@@H]1C[C@@H]2CCCC[C@@H]2CN1C[C@@H](O)[C@H](Cc1ccccc1)NC(=O)[C@H](CC(N)=O)NC(=O)c1ccc2ccccc2n1` [saquinavir], the “Akt phosphorylation at Ser 473 and at Thr 308” value in the data set on Akt [1] is “down-regulation of Akt phosphorylation at Ser 473 and at Thr 308”. The “toxicity to cells in tissue culture” value in the data set with cells in tissue culture is on record as “toxic to cells in tissue culture”. Moreover, the “Akt phosphorylation in white blood cells” value in the data set with Akt [2] was “decreased Akt phosphorylation; also recorded: lower levels of Akt phosphorylation”. Also, the “difference in cell kill (enhanced kill) vs radiation alone” value in the data set on T24 cells (T24, 30 fractions of 2 Gy) is recorded as roughly 5 log. In the data set on T24 cells (T24 cells, 10 μM saquinavir + 2 Gy radiation, control 56%), the “surviving fraction after 2 Gy (SF2)” value turned out to be 36%. The “saquinavir SF2” value in the data set on T24 cells (T24 cells, saquinavir added at least one hour prior to irradiation, colonies counted 10-14 days after, mean of at least six dishes, control 0.560 +/− 0.061) is reported as 0.380 +/− 0.168.
